According to patent EP1232756A1, “DRUGS, DRINKS OR FOODS” (Takara Shuzo Co, Ltd., priority 1999, dated 2001):
Blank lines part the entries; values can stand above or below the compound they belong to.

Experiments:
[1] = biological target: T1, ER(α) (estrogen receptor α) (Homo sapiens, UniProt P03372); assay: Binding to estrogen receptor, fluorescence polarization competition (FP Screen-for-Competitors kit, ER-α) (Example 7); conditions: concentration inhibiting 50% of the binding of the ES1-ER(α) complex by competing with ES1; 1 hour at room temperature
T1 construct: purchased PanVera V2577
T1 sequence (P03372 1-595): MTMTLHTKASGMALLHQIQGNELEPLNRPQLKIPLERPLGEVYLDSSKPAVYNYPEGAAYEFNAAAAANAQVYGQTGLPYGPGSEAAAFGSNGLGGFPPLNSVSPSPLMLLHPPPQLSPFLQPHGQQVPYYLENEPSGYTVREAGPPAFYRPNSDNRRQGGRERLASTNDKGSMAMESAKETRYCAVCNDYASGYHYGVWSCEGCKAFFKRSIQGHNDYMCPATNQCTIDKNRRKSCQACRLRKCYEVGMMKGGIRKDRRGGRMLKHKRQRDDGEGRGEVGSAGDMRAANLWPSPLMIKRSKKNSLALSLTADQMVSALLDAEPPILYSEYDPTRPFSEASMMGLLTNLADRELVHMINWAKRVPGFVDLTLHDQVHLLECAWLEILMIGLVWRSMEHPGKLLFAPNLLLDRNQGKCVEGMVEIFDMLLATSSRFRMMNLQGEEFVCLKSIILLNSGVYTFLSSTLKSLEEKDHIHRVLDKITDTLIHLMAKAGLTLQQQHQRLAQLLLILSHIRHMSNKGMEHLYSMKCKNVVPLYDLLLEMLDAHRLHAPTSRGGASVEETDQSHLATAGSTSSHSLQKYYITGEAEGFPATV
Method: Bindings of various gallic acid derivatives to estrogen receptor were tested using FP Screen-for-Competitors kit, ER-α, high sensitivity kit (V2577: PanVera). The tests were carried out basically according to the procedure as described in the manual attached to the kit. One of various gallic acid derivatives (n-octyl gallate (gallic acid n-octyl ester), n-dodecyl gallate (gallic acid n-dodecyl ester) and n-cetyl gallate (gallic acid n-hexadecyl ester)) was dissolved in DMSO and serially diluted to prepare diluted samples (0.5 M - 0.0000000005 M). 49 µL of Screening buffer attached to the kit was added to 1 µL of one of the diluted samples and stirred thoroughly. 50 µL of 10 nM-15 nM:ES1-ER(α) complex (a complex of ES1 (a fluorescent ligand that binds to ER) and ER(α) (estrogen receptor α)) attached to the kit was added thereto, resulting in the total volume of 100 µL. After allowing to stand for 1 hour at room temperature, fluorescence polarization was measured at an excitation wavelength of 360 nm and an emission wavelength of 535 nm using Full-Range BEACON 2000 (PanVera).

female SD rat [2] = assay: Anti-estrogenic activity of n-octyl gallate or n-cetyl gallate against subcutaneously administered BisA, rat uterine weight (Example 11); type: in vivo; conditions: for Ratio: vs control (100%)
Method: (§1) A 17-days old female SD rat (Japan SLC) was purchased together with its mother, weaned at 20 days of age, and subjected to experiments from the next day. n-Octyl gallate or n-cetyl gallate (both from Tokyo Kasei Kogyo) was dissolved in a small volume of ethanol. Peanut oil was added thereto to result in a final ethanol concentration of 5%. The resulting mixture was orally administered to the 21-days old female SD rat for three successive days. The uterine removed on the day after the last administration day was weighed. Peanut oil containing 5% ethanol was used for a vehicle administration group. BisA was dissolved in a small volume of ethanol. Peanut oil was added thereto to result in a final ethanol concentration of 5%. The mixture was subcutaneously administered.

female SD rat [3] = assay: Agonistic (estrogenic) activity: immature rat uterine weight (Example 1(2)); type: in vivo; conditions: substance alone
Method: A 17-days old female SD rat (purchased from Japan SLC) was received together with its mother, weaned at 20 days of age, and subjected to experiments from the next day. Five ml per kg body weight of EGCG (Sigma) or bisphenol-A (hereinafter referred to as BisA, Tokyo Kasei Kogyo) suspended in peanut oil (Nacalai Tesque) was administered orally and forcibly. Peanut oil was administered to a control rat in a similar manner. Administration was carried out once a day for three successive days. The uterine removed 24 hours after the last administration was weighed. BisA or EGCG (80 or 800 mg/kg) was administered. […]

female SD rat [4] = assay: Antagonistic (anti-estrogenic) activity of EGCG against bisphenol-A, immature rat uterine weight (Example 1(3)); type: in vivo; conditions: BisA 800 mg/kg oral alone
Method: A 17-days old female SD rat (purchased from Japan SLC) was received together with its mother, weaned at 20 days of age, and subjected to experiments from the next day. Five ml per kg body weight of EGCG (Sigma) or bisphenol-A (hereinafter referred to as BisA, Tokyo Kasei Kogyo) suspended in peanut oil (Nacalai Tesque) was administered orally and forcibly. Peanut oil was administered to a control rat in a similar manner. Administration was carried out once a day for three successive days. The uterine removed 24 hours after the last administration was weighed. BisA (800 mg/kg) and EGCG (800 mg/kg) were administered at the same time.

female SD rat [5] = assay: Anti-estrogenic activity of solution of EGCG in ethanol against bisphenol-A, rat uterine weight (Example 2); type: in vivo; conditions: for Uterine weight: mean ± standard error; for Ratio: vs control (100%)
Method: A 17-days old female SD rat (purchased from Japan SLC) was received together with its mother, weaned at 20 days of age, and subjected to experiments from the next day. BisA was weighed such that it would be administered at 200 or 40 mg/kg and dissolved in a small volume of ethanol. Peanut oil was added thereto to result in a final ethanol concentration of 5%. The resulting mixture was orally administered for three successive days. The uterine removed on the next day was weighed. EGCG was dissolved by adding ethanol and water was then added thereto to adjust the final ethanol concentration to 10%. The solution was orally administered on the day before the administration of BisA and 30 minutes before each of the successive administrations of BisA.

female SD rat [6] = assay: Effect of ethanol concentration on anti-estrogenic activity of EGCG, rat uterine weight (Example 4); type: in vivo; conditions: BisA 40 mg/kg subcutaneous alone
Method: (§2) A 16-days old female SD rat (Japan SLC) was purchased together with its mother, weaned at 19 days of age, and subjected to experiments from the next day. BisA was weighed such that it would be administered at 40 mg/kg and dissolved in a small volume of ethanol. Peanut oil was added thereto to result in a final ethanol concentration of 5%. The resulting mixture was subcutaneously administered for three successive days. The uterine removed on the day after the third administration day was weighed. EGCG (200 mg/kg) was dissolved by adding ethanol and water was then added thereto to adjust the final ethanol concentration to 10, 5, 1, 0.5 or 0%. The solution was orally administered 90 minutes before the administration of BisA.

female SD rat [7] = assay: Anti-estrogenic activity of solution of EGCG in ethanol, subcutaneous BisA, rat uterine weight (Example 5); type: in vivo; conditions: BisA 40 mg/kg subcutaneous alone
Method: as §2, with “10” for “10, 5, 1, 0.5”, “30” for “90”

female SD rat [8] = assay: Dose dependency of anti-estrogenic activity of solution of EGCG in ethanol, rat uterine weight (Example 6); type: in vivo; conditions: for Ratio: vs control (100%)
Method: as §2, with “subcutaneously or orally” for “subcutaneously”, “EGCG” for “EGCG (200 mg/kg)”, “10%.” for “10, 5, 1, 0.5 or 0%.”, “30” for “90”

[9] = system: human breast cancer-derived MCF-7 cells; assay: E-SCREEN assay, proliferation of cultured cells, MTT method (Example 8); type: cell-based; conditions: BisA alone
Method: A test for proliferation of cultured cells was carried out according to a method called the E-SCREEN assay as described in Ana M. Soto et al. (Environ. Health Perspect. 103:113-122(1995)). Briefly, 4.0 x 10^3 of human breast cancer-derived MCF-7 cells in a volume of 100 µL were seeded into each well of a 96-well plate. The plate was incubated overnight. BisA or a combination of BisA and n-octyl gallate was then added thereto. A well without the addition was used as a control. The cells were further cultured for 4 days in a medium, Dulbecco's modified Eagle medium without Phenol Red supplemented with 5% FCS treated with activated carbon-dextran. The MTT method was used to measured the cell numbers.

female SD rat [10] = assay: Anti-estrogenic activity of n-octyl gallate against BisA, rat uterine weight (Example 9); type: in vivo; conditions: BisA 40 mg/kg oral + vehicle
Method: as §1, with “16-days” for “17-days”, “19” for “20”, “(Tokyo” for “or n-cetyl gallate (both from Tokyo”, “20-days” for “21-days”, “It” for “The mixture”, “orally administered 1.5 hours after the administration of n-octyl gallate.” for “subcutaneously administered.”

female SD rat [11] = assay: Anti-estrogenic activity of solution of EGCG in ethanol against 4-nonylphenol, rat uterine weight (Example 3); type: in vivo; conditions: NP 50 mg/kg oral alone
Method: A 16-days old female SD rat (Japan SLC) was purchased together with its mother, weaned at 19 days of age, and subjected to experiments from the next day.
4-Nonylphenol (hereinafter referred to as NP) was weighed such that it would be administered at 50 mg/kg and diluted by adding peanut oil thereto. The resulting mixture was orally administered for three successive days. The uterine removed on the day after the third administration day was weighed. EGCG was dissolved by adding ethanol and water was then added thereto to adjust the final ethanol concentration to 10%. The solution was orally administered 90 minutes before the administration of NP.

female SD rat [12] = assay: Anti-estrogenic activity of n-octyl gallate against NP, rat uterine weight (Example 10); type: in vivo; conditions: NP 50 mg/kg oral + vehicle
Method: A 16-days old female SD rat (Japan SLC) was purchased together with its mother, weaned at 19 days of age, and subjected to experiments from the next day. n-Octyl gallate (Tokyo Kasei Kogyo) was dissolved in a small volume of ethanol. Peanut oil was added thereto to result in a final ethanol concentration of 5%. The resulting mixture was orally administered to the 20-days old female SD rat for three successive days. The uterine removed on the day after the last administration day was weighed. Peanut oil containing 5% ethanol was used for a vehicle administration group. NP weighed such that it would be administered at 50 mg/kg was diluted by adding peanut oil. It was orally administered 1.5 hours after the administration of n-octyl gallate.

IC50 [1]: 47.6 nM
SMILES: CCCCCCCCCCCCCCCCOC(=O)c1cc(O)c(O)c(O)c1 [n-cetyl gallate, gallic acid n-hexadecyl ester]
Uterine weight (female SD rat [2]; BisA 40 mg/kg subcutaneous + n-cetyl gallate 1 mg/kg oral, 3 days): 45.1 ± 2.3 mg | Uterine weight (female SD rat [2]; BisA 40 mg/kg subcutaneous + n-cetyl gallate 5 mg/kg oral, 3 days): 43.1 ± 2.0 mg | Ratio (female SD rat [2]; BisA 40 mg/kg subcutaneous + n-cetyl gallate 1 mg/kg oral): 109% | Ratio (female SD rat [2]; BisA 40 mg/kg subcutaneous + n-cetyl gallate 5 mg/kg oral): 104%

IC50 [1]: 311 nM
SMILES: CCCCCCCCCCCCOC(=O)c1cc(O)c(O)c(O)c1 [n-Dodecyl gallate, gallic acid n-dodecyl ester]

SMILES: CC(C)(c1ccc(O)cc1)c1ccc(O)cc1 [BisA, bisphenol-A, reference compound]
Uterine weight (female SD rat [3]; 800 mg/kg oral in peanut oil, once a day for 3 days, mean ± standard error): 55.2 ± 2.3 mg | Ratio (female SD rat [3]; uterine weight vs control group (100%), 800 mg/kg oral, 3 days): 137% | Uterine weight (female SD rat [4]; mean ± standard error): 54.7 ± 5.5 mg | Ratio (female SD rat [4]; vs control (100%)): 147% | Uterine weight (female SD rat [5]; BisA 40 mg/kg oral alone): 64.5 ± 9.2 mg | Uterine weight (female SD rat [5]; BisA 200 mg/kg oral alone): 57.7 ± 5.2 mg | Ratio (female SD rat [5]; BisA 40 mg/kg, oral, alone): 149% | Ratio (female SD rat [5]; BisA 200 mg/kg oral alone): 133% | Uterine weight (female SD rat [6]; mean ± standard error): 49.9 ± 2.1 mg | Ratio (female SD rat [6]; vs control (100%)): 186% | Uterine weight (female SD rat [7]; mean ± standard error): 50.0 ± 2.7 mg | Ratio (female SD rat [7]; vs control (100%)): 162% | Uterine weight (female SD rat [8]; BisA 40 mg/kg subcutaneous alone, mean ± standard error): 52.2 ± 2.9 mg | Ratio (female SD rat [8]; BisA 40 mg/kg subcutaneous alone): 160% | Ratio (female SD rat [8]; BisA 40 mg/kg, oral, alone): 140% | number of the cells proliferated relative to the control ([9]; MCF-7): 1.8 fold | Relative rate of increase in cell number ([9]; MCF-7, 4 days culture, control = 100): 180% | Uterine weight (female SD rat [10]; mean ± standard error): 48.9 ± 2.1 mg | Ratio (female SD rat [10]; vs control (100%)): 161% | Uterine weight (female SD rat [2]; BisA 40 mg/kg subcutaneous + vehicle, mean ± standard error): 59.7 ± 2.7 mg | Ratio (female SD rat [2]; BisA 40 mg/kg subcutaneous + vehicle): 145%

SMILES: CCCCCCCCCc1ccc(O)cc1 [NP, 4-Nonylphenol, reference compound]
Uterine weight (female SD rat [11]; mean ± standard error): 44.4 ± 3.2 mg | Ratio (female SD rat [11]; vs control (100%)): 144% | Uterine weight (female SD rat [12]; mean ± standard error): 47.6 ± 2.3 mg | Ratio (female SD rat [12]; vs control (100%)): 144%
